Test results taken from ChEMBL document CHEMBL5360551, “Exploration of LPS2 agonist binding modes using the combination of a new hydrophobic scaffold and homology modeling” (Eur J Med Chem, 2023).

Experiments:
[1] = target: Putative P2Y purinoceptor 10 (Mus musculus) (UniProt Q8BFU7); assay: Agonist activity at mouse LPS2/P2Y10 transfected in HEK293-A cells co-transfected with AP-TGFalpha assessed as AP-TGFalpha release by TGFalpha shedding assay relative to LysoPS; assay type: functional, cell-based; details: filed as agonist
[2] = target: Putative P2Y purinoceptor 10 (Mus musculus, UniProt Q8BFU7); assay: Agonist activity at mouse LPS2/P2Y10 transfected in HEK293-A cells co-transfected with AP-TGFalpha assessed as AP-TGFalpha release by TGFalpha shedding assay; assay type: functional, cell-based
[3] = target: T1, Putative P2Y purinoceptor 10 (Homo sapiens, UniProt O00398); assay: Agonist activity at human LPS2/P2Y10 transfected in HEK293-A cells co-transfected with AP-TGFalpha assessed as AP-TGFalpha release by TGFalpha shedding assay relative to LysopPS; assay type: functional, cell-based; details: filed as agonist
[4] = target: T1, Putative P2Y purinoceptor 10; assay: Agonist activity at human LPS2/P2Y10 transfected in HEK293-A cells co-transfected with AP-TGFalpha assessed as AP-TGFalpha release by TGFalpha shedding assay; assay type: functional, cell-based
[5] = target: Putative P2Y purinoceptor 10 (Homo sapiens, UniProt O00398, V159F); assay: Agonist activity at N-terminal FLAG-tagged human LPS2/P2Y10 V159F mutant transfected in HEK293-A cells co-transfected with AP-TGFalpha assessed as AP-TGFalpha release by TGFalpha shedding assay; assay type: cell-based
[6] = target: T1, Putative P2Y purinoceptor 10; assay: Agonist activity at wildtype N-terminal FLAG-tagged human LPS2/P2Y10 transfected in HEK293-A cells co-transfected with AP-TGFalpha assessed as AP-TGFalpha release by TGFalpha shedding assay relative to LysoPS; assay type: functional, cell-based; details: filed as agonist
[7] = target: Putative P2Y purinoceptor 10 (Homo sapiens, UniProt O00398, A163F); assay: Agonist activity at N-terminal FLAG-tagged human LPS2/P2Y10 A163F mutant transfected in HEK293-A cells co-transfected with AP-TGFalpha assessed as AP-TGFalpha release by TGFalpha shedding assay; assay type: cell-based
[8] = tested on: Putative P2Y purinoceptor 10 (Homo sapiens), O00398 [V159F]; assay: Agonist activity at N-terminal FLAG-tagged human LPS2/P2Y10 V159F mutant transfected in HEK293-A cells co-transfected with AP-TGFalpha assessed as AP-TGFalpha release by TGFalpha shedding assay relative to LysoPS; assay type: cell-based; details: filed as agonist
[9] = tested on: Putative P2Y purinoceptor 10 (Homo sapiens), O00398 [A163F]; assay: Agonist activity at N-terminal FLAG-tagged human LPS2/P2Y10 A163F mutant transfected in HEK293-A cells co-transfected with AP-TGFalpha assessed as AP-TGFalpha release by TGFalpha shedding assay relative to LysoPS; assay type: cell-based; details: filed as agonist
[10] = target: T1, Putative P2Y purinoceptor 10; assay: Agonist activity at wildtype N-terminal FLAG-tagged human LPS2/P2Y10 transfected in HEK293-A cells co-transfected with AP-TGFalpha assessed as AP-TGFalpha release by TGFalpha shedding assay; assay type: functional, cell-based
[11] = target: Probable G-protein coupled receptor 34 (Mus musculus, UniProt Q9R1K6); assay: Agonist activity at mouse LPS1/GPR34 transfected in HEK293-A cells co-transfected with AP-TGFalpha assessed as AP-TGFalpha release by TGFalpha shedding assay; assay type: functional, cell-based
[12] = target: Probable G-protein coupled receptor 34 (Mus musculus) (UniProt Q9R1K6); assay: Agonist activity at mouse LPS1/GPR34 transfected in HEK293-A cells co-transfected with AP-TGFalpha assessed as AP-TGFalpha release by TGFalpha shedding assay relative to LysoPS; assay type: functional, cell-based; details: filed as agonist
Probable G-protein coupled receptor 34 (Mus musculus), sequence (Q9R1K6 whole entry): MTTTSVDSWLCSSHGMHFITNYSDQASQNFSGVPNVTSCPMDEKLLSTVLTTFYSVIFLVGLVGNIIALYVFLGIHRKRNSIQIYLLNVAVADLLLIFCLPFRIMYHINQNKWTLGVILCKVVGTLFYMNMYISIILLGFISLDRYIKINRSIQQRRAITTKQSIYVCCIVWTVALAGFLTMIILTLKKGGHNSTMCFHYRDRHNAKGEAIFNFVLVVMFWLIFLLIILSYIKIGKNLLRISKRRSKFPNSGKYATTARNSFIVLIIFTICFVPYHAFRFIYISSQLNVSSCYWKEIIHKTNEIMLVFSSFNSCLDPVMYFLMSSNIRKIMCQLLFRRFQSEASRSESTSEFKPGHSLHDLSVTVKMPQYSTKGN

Putative P2Y purinoceptor 10 (Homo sapiens, UniProt O00398, A163F), sequence (O00398 whole entry A163F): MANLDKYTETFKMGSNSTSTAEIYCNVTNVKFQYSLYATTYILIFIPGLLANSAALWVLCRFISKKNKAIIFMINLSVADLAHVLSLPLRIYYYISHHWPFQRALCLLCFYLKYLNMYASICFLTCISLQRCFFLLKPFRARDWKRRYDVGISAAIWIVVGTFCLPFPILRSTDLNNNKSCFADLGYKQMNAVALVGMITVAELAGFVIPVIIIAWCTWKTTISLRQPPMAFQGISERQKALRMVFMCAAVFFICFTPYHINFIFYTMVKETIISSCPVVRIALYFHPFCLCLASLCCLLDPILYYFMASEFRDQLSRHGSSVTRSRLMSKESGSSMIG
Putative P2Y purinoceptor 10 (Homo sapiens), O00398 [A163F], sequence (O00398 whole entry A163F): as above
Probable G-protein coupled receptor 34, sequence (Q9R1K6 whole entry): as the sequence (Q9R1K6 whole entry) above
Putative P2Y purinoceptor 10 (Homo sapiens, UniProt O00398, V159F), sequence (O00398 whole entry V159F): as the sequence (O00398 whole entry A163F) above, with V159F, F163A counted along it
Putative P2Y purinoceptor 10 (Homo sapiens), O00398 [V159F], sequence (O00398 whole entry V159F): as the sequence (O00398 whole entry A163F) above, with V159F, F163A counted along it
Putative P2Y purinoceptor 10 (Mus musculus), sequence (Q8BFU7 whole entry): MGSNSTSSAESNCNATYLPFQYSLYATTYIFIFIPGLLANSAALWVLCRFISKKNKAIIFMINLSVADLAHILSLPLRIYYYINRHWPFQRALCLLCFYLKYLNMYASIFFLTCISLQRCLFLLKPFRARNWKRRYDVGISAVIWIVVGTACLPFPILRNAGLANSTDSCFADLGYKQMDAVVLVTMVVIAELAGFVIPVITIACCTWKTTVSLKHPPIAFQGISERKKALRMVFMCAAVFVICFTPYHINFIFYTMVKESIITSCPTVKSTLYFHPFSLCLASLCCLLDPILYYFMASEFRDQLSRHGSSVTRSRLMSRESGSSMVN
Putative P2Y purinoceptor 10 (Mus musculus, UniProt Q8BFU7), sequence (Q8BFU7 whole entry): as above
T1 sequence (O00398 whole entry): as the sequence (O00398 whole entry A163F) above, with F163A counted along it

Row | Compound | Emax [1] | EC50 ([2]; read-out: EC50) | further results
1 | CCc1ccccc1-c1ccc(Oc2ccccc2CCC(=O)OCCCOP(=O)(O)OC[C@H](N)C(=O)O)cc1 | 92% | 0.018 µM | 
2 | CC(C)(C)c1cc(Oc2ccccc2CCC(=O)OCCCOP(=O)(O)OC[C@H](N)C(=O)O)cc(C(C)(C)C)c1 | 125% | 0.2 µM | 
3 | N[C@@H](COP(=O)(O)OCCCCOC(=O)CC(=O)CC(=O)Cc1ccccc1Oc1ccc(-c2ccccc2)cc1)C(=O)O | 118% | 0.031 µM | 
4 | CCc1ccc(Oc2ccccc2CCC(=O)OCCCOP(=O)(O)OC[C@H](N)C(=O)O)cc1 | 72% | 0.81 µM | 
5 | N[C@@H](COP(=O)(O)OCCCCCOC(=O)CC(=O)Cc1ccccc1Oc1ccc(-c2ccccc2)cc1)C(=O)O | 105% | 0.24 µM | 
6 | N[C@@H](COP(=O)(O)OCCCOC(=O)CCc1ccccc1Oc1cc(-c2ccccc2)cc(-c2ccccc2)c1)C(=O)O | 121% | 0.023 µM | Emax [3]: 152%; EC50 ([4]; read-out: EC50): 0.12 µM
7 | Nc1ccc(Oc2ccccc2CCC(=O)OCCCOP(=O)(O)OC[C@H](N)C(=O)O)cc1 | 59% | 0.0016 µM | EC50 ([2]; read-out: pEC50 (converted)): 1.58 µM
8 | N[C@@H](COP(=O)(O)OCCCOC(=O)CCc1ccccc1Oc1ccc(-c2ccc(-c3ccccc3)cc2)cc1)C(=O)O | 70% | 0.0037 µM | Emax [3]: 89%; EC50 ([4]; read-out: EC50): 0.008 µM
9 | Cc1cccc(Oc2ccccc2CCC(=O)OCCCOP(=O)(O)OC[C@H](N)C(=O)O)c1 | 78% | 0.21 µM | 
10 | N[C@@H](COP(=O)(O)OCCCOC(=O)CCc1ccccc1Oc1ccc(-c2ccccc2)cc1)C(=O)O | 111% | 0.0092 µM | EC50 [5]: 0.026 µM; Emax [6]: 125%; EC50 [7]: 0.033 µM; Emax [8]: 131%; Emax [9]: 122%; EC50 [10]: 0.053 µM; Emax [3]: 133%; EC50 ([4]; read-out: EC50): 0.071 µM
11 | N[C@@H](COP(=O)(O)OCCCCOC(=O)CC(=O)Cc1ccccc1Oc1ccc(-c2ccccc2)cc1)C(=O)O | 98% | 0.14 µM | 
12 | N[C@@H](COP(=O)(O)OCCCCCOC(=O)CC(=O)CC(=O)Cc1ccccc1Oc1ccc(-c2ccccc2)cc1)C(=O)O | 96% | 0.1 µM | 
13 | N[C@@H](COP(=O)(O)OCCCOC(=O)CCc1ccccc1OCc1cccc(Oc2ccccc2)c1)C(=O)O | 63% | 0.09 µM | EC50 ([2]; read-out: pEC50 (converted)): 0.0933 µM; EC50 ([11]; hek293-a): 0.22 µM; Emax [12]: 124%
14 | N[C@@H](COP(=O)(O)OC1CCCO[C@@H]1COC(=O)CCc1ccccc1OCc1cccc(Oc2ccccc2)c1)C(=O)O (stereo partly drawn) |  |  | EC50 [11]: 0.18 µM; Emax [12]: 117%
15 | Cc1cc(C)cc(-c2cccc(COc3ccccc3CCC(=O)OCCCOP(=O)(O)OC[C@H](N)C(=O)O)c2)c1 | 114% | 0.046 µM | EC50 [11]: > 3 µM
16 | N#Cc1ccc(Oc2ccccc2CCC(=O)OCCCOP(=O)(O)OC[C@H](N)C(=O)O)cc1 |  | > 0.003 µM | EC50 ([2]; read-out: pEC50 (converted)): < 3.16 µM
17 | N[C@@H](COP(=O)(O)OCCCOC(=O)CCc1ccccc1Oc1ccc(C23C[C@H]4C[C@@H](C2)C[C@@H](C3)C4)cc1)C(=O)O | 107% | 0.057 µM | EC50 [5]: 0.27 µM; Emax [6]: 120%; EC50 [7]: 0.39 µM; Emax [8]: 128%; Emax [9]: 137%; EC50 [10]: 0.17 µM
18 | CC(C)(C)c1ccc(-c2cccc(COc3ccccc3CCC(=O)OCCCOP(=O)(O)OC[C@H](N)C(=O)O)c2)cc1 | 99% | 0.035 µM | EC50 [11]: 0.95 µM; Emax [12]: 107%
19 | N[C@@H](COP(=O)(O)OCCCOC(=O)CCc1ccccc1Oc1cccc(-c2ccccc2)c1)C(=O)O | 109% | 0.029 µM | Emax [3]: 133%; EC50 ([4]; read-out: EC50): 0.062 µM
20 | CCCCCCCCCCCOc1ccccc1CCC(=O)OCCCOP(=O)(O)OC[C@H](N)C(N)=O | 111% | 0.0027 µM | EC50 [11]: 1.6 µM; Emax [12]: 94%
21 | CCCCCCOc1cccc(COc2ccccc2CCC(=O)OCCCOP(=O)(O)OC[C@H](N)C(N)=O)c1 | 113% | 0.0071 µM | EC50 [11]: > 3 µM
22 | Cc1ccccc1Oc1ccccc1CCC(=O)OCCCOP(=O)(O)OC[C@H](N)C(=O)O | 70% | 0.14 µM | 

Row | Compound | Emax [1] | EC50 ([2]; read-out: EC50) | further results
23 | CCCCCCCCCCCOc1ccccc1CCC(=O)OCC(F)(F)COP(=O)(O)OC[C@H](N)C(=O)O | 94% | 0.0015 µM | 
24 | CC(C)(C)c1ccc(-c2ccc(Oc3ccccc3CCC(=O)OCCCOP(=O)(O)OC[C@H](N)C(=O)O)cc2)cc1 | 78% | 0.003 µM | 
25 | N[C@@H](COP(=O)(O)OCCCOC(=O)CCc1ccccc1OCc1cccc(-c2ccccc2)c1)C(=O)O | 131% | 0.0057 µM | EC50 [11]: > 3 µM
26 | CCc1ccccc1Oc1ccccc1CCC(=O)OCCCOP(=O)(O)OC[C@H](N)C(=O)O | 78% | 0.17 µM | 
27 | N[C@@H](COP(=O)(O)OCCCOC(=O)CCc1ccccc1Oc1ccc(O)cc1)C(=O)O |  | > 0.003 µM | EC50 ([2]; read-out: pEC50 (converted)): < 3.16 µM
28 | N[C@@H](COP(=O)(O)OCCCOC(=O)CC(=O)Cc1ccccc1Oc1ccc(-c2ccccc2)cc1)C(=O)O | 99% | 0.0011 µM | EC50 ([2]; read-out: pEC50 (converted)): 1.07 µM
29 | Cc1ccc(-c2ccc(Oc3ccccc3CCC(=O)OCCCOP(=O)(O)OC[C@H](N)C(=O)O)cc2)cc1 | 108% | 0.011 µM | 
30 | N[C@@H](COP(=O)(O)OCCCOC(=O)CCc1ccccc1Oc1ccccc1)C(=O)O | 93% | 0.4 µM | EC50 [5]: 1.5 µM; EC50 [7]: 1.6 µM; Emax [8]: 98%; Emax [9]: 104%; EC50 [10]: > 3 µM
31 | CC(C)(C)c1ccc(Oc2ccccc2CCC(=O)OCCCOP(=O)(O)OC[C@H](N)C(=O)O)cc1 | 123% | 0.067 µM | EC50 [5]: 0.25 µM; Emax [6]: 119%; EC50 [7]: 0.47 µM; Emax [8]: 131%; Emax [9]: 113%; EC50 [10]: 0.18 µM
32 | Cc1cc(C)cc(Oc2ccccc2CCC(=O)OCCCOP(=O)(O)OC[C@H](N)C(=O)O)c1 | 114% | 0.13 µM | 
33 | N[C@@H](COP(=O)(O)OCCCOC(=O)CCc1ccccc1Oc1ccccc1-c1ccccc1)C(=O)O | 105% | 0.89 µM | EC50 ([4]; read-out: EC50): > 0.003 µM; EC50 ([4]; read-out: pEC50 (converted)): 5.13 µM
34 | CC(C)(C)c1cccc(-c2ccc(Oc3ccccc3CCC(=O)OCCCOP(=O)(O)OC[C@H](N)C(=O)O)cc2)c1 | 115% | 0.014 µM | 
35 | CCCCCCCC/C=C\CCCCCCCC(=O)OCCCOP(=O)(O)OC[C@H](N)C(N)=O | 112% | 0.024 µM | EC50 [11]: > 3 µM
36 | CCc1ccc(-c2ccc(Oc3ccccc3CCC(=O)OCCCOP(=O)(O)OC[C@H](N)C(=O)O)cc2)cc1 | 98% | 0.0026 µM | 
37 | CC(C)(C)c1cc(-c2cccc(COc3ccccc3CCC(=O)OCCCOP(=O)(O)OC[C@H](N)C(=O)O)c2)cc(C(C)(C)C)c1 | 109% | 0.028 µM | EC50 [11]: > 3 µM
38 | N[C@@H](COP(=O)(O)OCCCOC(=O)CCc1ccccc1Oc1ccc(-c2ccc(C34C[C@H]5C[C@@H](C3)C[C@@H](C4)C5)cc2)cc1)C(=O)O | 68% | 0.0053 µM | 
39 | N[C@@H](COP(=O)(O)OCCCOC(=O)CCc1ccccc1Oc1ccc(-c2ccccc2-c2ccccc2)cc1)C(=O)O | 87% | 0.0067 µM | Emax [3]: 113%; EC50 ([4]; read-out: EC50): 0.1 µM
40 | N[C@@H](COP(=O)(O)OCCOC(=O)CC(=O)CC(=O)Cc1ccccc1Oc1ccc(-c2ccccc2)cc1)C(=O)O | 112% | 0.2 µM | 
41 | Cc1cccc(COc2ccccc2CCC(=O)OCCCOP(=O)(O)OC[C@H](N)C(=O)O)c1 | 114% | 0.34 µM | 
42 | Cc1ccc(Oc2ccccc2CCC(=O)OCCCOP(=O)(O)OC[C@H](N)C(=O)O)cc1 | 88% | 0.14 µM | EC50 [5]: 0.66 µM; Emax [6]: 114%; EC50 [7]: 0.35 µM; Emax [8]: 117%; Emax [9]: 92%; EC50 [10]: 0.81 µM
43 | CC(C)(C)c1cccc(Oc2ccccc2CCC(=O)OCCCOP(=O)(O)OC[C@H](N)C(=O)O)c1 | 113% | 0.4 µM | 
44 | N[C@@H](COP(=O)(O)OCCOC(=O)CC(=O)Cc1ccccc1Oc1ccc(-c2ccccc2)cc1)C(=O)O |  | > 0.003 µM | EC50 ([2]; read-out: pEC50 (converted)): 6.03 µM
